Assay results reported in article PMC7983942 (Clinical Pharmacology and Therapeutics, 2020).

Experiment: Fasting plasma concentrations in healthy volunteers by SLCO1B1 genotype
Conditions: for Plasma concentration, ratio to control (95% CI) / Plasma concentration, geometric mean (95% CI): fasting, adjusted for sex; for Mean fasting plasma concentration, lower in women than in men: women vs men, 356 healthy volunteers
[1] = SLCO1B1 c.521 C/C genotype (n = 13)
[2] = SLCO1B1 c.521 T/C genotype (n = 113)
[3] = SLCO1B1 c.521 T/T genotype (control; n = 230)

Row | Plasma concentration, ratio to control (95% CI) (C/C genotype (n = 13) vs T/T) | Plasma concentration, geometric mean (95% CI) [1] | Plasma concentration, geometric mean (95% CI) [2] | Plasma concentration, geometric mean (95% CI) [3] | Plasma concentration, ratio to control (95% CI) (T/C genotype (n = 113) vs T/T) | Mean fasting plasma concentration, lower in women than in men | SMILES
1 | 1.35 (0.865, 2.11) | 567 (367, 876) ng/mL | 378 (326, 438) ng/mL | 419 (378, 465) ng/mL | 0.900 (0.751, 1.08) | ~ 20% | C[C@H](CCC(=O)NCC(=O)O)[C@H]1CC[C@H]2[C@@H]3[C@H](O)C[C@@H]4C[C@H](O)CC[C@]4(C)[C@H]3CC[C@]12C [GCDCA, Glycochenodeoxycholate]
2 | 1.16 (0.675, 1.98) | 141 (83.3, 237) ng/mL | 124 (104, 149) ng/mL | 122 (107, 138) ng/mL | 1.02 (0.822, 1.27) | ~ 20% | C[C@H](CCC(=O)NCC(=O)O)[C@H]1CC[C@H]2[C@@H]3CC[C@@H]4C[C@H](O)CC[C@]4(C)[C@H]3C[C@H](O)[C@]12C [GDCA, glycodeoxycholate]
